Experimental data: a melting point compilation (Tetko et al.; mined from patent text by program, amines drawn as free bases though some values may be those of a salt)

| SMILES | melting point [°C] |
| --- | --- |
| NCCc1nc(Cl)ccc1C(=O)O | 158 to 160 |
| Sc1nncn1Cc1ccccc1 | 124 to 125 |
| N#CC(C#N)=CN(N=C(C#N)C#N)c1cccc(F)c1 | 134 to 135 |
| CCCOc1ccc(C(=O)O)cc1C(C)=O | 165 to 169 |
| Cc1cc(CCCCC(=O)O)no1 | 58 to 60 |
| O=[N+]([O-])c1ccc2c(c1)C(N1CCCC1)C(O)CC2 (configuration not stated) | 77 |
| CC1(C)[C@@H](C(=O)Nc2ccncc2)[C@@H]1c1ccc(S(N)(=O)=O)cc1 (relative stereo) | 270 to 274 |
| Cc1ccc(S(=O)(=O)n2ccc3c(OCC4CO4)cccc32)cc1 (configuration not stated) | 109 to 112 |
| CC(=O)OCC(O)(COC(C)=O)c1ccc(F)cc1F | 70.5 to 71.5 |
| CCc1[nH]n(C2CCCC2)c2nc(-c3ccc4nccn4c3)nc(=O)c1-2 | > 300 |
| N#Cc1ccc(Nc2nc(Cl)nc(Cc3c(Cl)cccc3Cl)n2)cc1 | 243 to 244 |
| CCOC1OC(COC(C)=O)C(OC2OC(COC(C)=O)C(OC(C)=O)C(OC(C)=O)C2OC(C)=O)C(OC(C)=O)C1OC(C)=O (configuration not stated) | 133 to 135 |
| CC(C)COc1ccc(C(=O)O)cc1[N+](=O)[O-] | 184 to 186 |
| C=CCc1c(-c2cc(=O)c3c(O)cc(OCC(=O)OCC)cc3o2)ccc(OC)c1O | 155 |
| CC(C)(C)OC(=O)NNCc1ccc(Cl)cc1 | 77 to 82 |
| CN(C)c1ncccc1NC(=NC#N)NC1(c2ccccc2)CCC1 | 204 to 205 |
| CN(C)c1nc(C(F)(F)F)cc(=O)n1-c1cc(F)c(C#N)cc1F | 147 |
| CCCCCC(=O)NC[C@H]1CNC(=O)O1 | 124 |
| C/C(=C\c1ccc(NC(=O)c2cc([Si](C)(C)C)cc([Si](C)(C)C)c2)cc1F)C(=O)O | 213 to 215 |
| Cc1ccc(C(=O)Nc2c(NC(=O)CN(C)CC3OCCO3)ccc3c2C(=O)c2ccccc2C3=O)cc1 | 156 to 157 |
| COC(=O)C1=C(C)NC(c2csc(C)n2)=NC1c1ccc(F)cc1Cl (configuration not stated) | 128 to 130 |
| Cc1cc(-n2ccnc2)c2cccc(OCc3c(Cl)ccc(S(=O)(=O)N4CCC[C@H]4C(=O)NCC4CCN(Cc5ccncc5)CC4)c3Cl)c2n1 | 113 |

| SMILES | melting point [°C] |
| --- | --- |
| O=C(N[C@H](Cc1ccc(C(F)(F)F)cc1)[C@@H](O)c1cccc2ccccc12)C1CCCCC1 (racemic) | 156 to 157 |
| Cc1cc2c3c(c1)nc(N1CCN(C)CC1)n3CCC2 | 164 to 165 |
| CN(C(=O)C(F)(F)F)c1ccc2[nH]ncc2c1 | 172 to 174 |
| CCN(CC)C(=O)c1ccc(C(=C2CCNCC2)c2cccc3cccnc23)cc1 | > 170 |
| CC1(C)C(=O)N(c2ccc(C#N)c(C(F)(F)F)c2)C(=O)N1CC1OC1CN1C(=O)N(c2ccc(C#N)c(C(F)(F)F)c2)C(=O)C1(C)C (configuration not stated) | 108 to 110 |
| OCc1conc1-c1ccc(Cl)c(Cl)c1 | 103 to 104 |
| NS(=O)(=O)c1ccc(-n2nc(C(F)(F)F)cc2-c2ccc(F)cc2)cc1 | 165 to 166 |
| O=C(NCCC(=O)N1CCCCC1)c1ccc(-c2ccc3nnn(Cc4ccc5ncccc5c4)c3n2)cc1F | 109 to 111 |
| O=C(O)c1cn(-c2ccncc2F)c2nc(Cl)c(F)cc2c1=O | 228 to 230 |
| COC(=O)c1cc2ccc(C(=O)NC(CO)CO)cc2[nH]1 | 205 to 207 |
| CCCCNc1nc(N(CCCC)C2CC(C)(C)N(OC3CCCCC3)C(C)(C)C2)nc(N(CCCC)C2CC(C)(C)N(OC3CCCCC3)C(C)(C)C2)n1 | 80 to 86 |
| Cc1cc(-c2ccc(C(F)(F)F)cc2)nc(-c2cccc(-c3ccc(S(N)(=O)=O)s3)c2)c1 | 211 |
| CCn1ncc2c1ncc1c(=O)n(C)c3ncnn3c12 | 208 to 210 |
| C=Cc1cn(-c2ccccn2)c2c1C(=O)CC(C)(C)C2 | 150 to 154 |
| COc1cccc(-c2ccc3c(c2)C2(CCCCC2)C(=NO)N3)c1 | 101 to 104 |
| Cc1cc(=O)c2ccccc2o1 | 71 |
| CC1(OC(=O)c2ncn3c2C2CCCN2C(=O)c2c(Cl)cccc2-3)CCCC1 (configuration not stated) | 190 to 191 |
| Cc1ccc(C(=O)c2ccc(F)cc2)s1 | 68 |
| O=C(O)CCC(=O)c1ccc(CCNS(=O)(=O)c2ccc(Cl)cc2)cc1 | 152 |
| CC(CCNC(=O)c1ccc(OC(F)(F)F)cc1)CC(C)(C)CNC(=O)c1ccc(OC(F)(F)F)cc1 (configuration not stated) | 97 to 99 |
| OCCCc1cc(-c2ccc(Cl)cc2)n(-c2c(Cl)cncc2Cl)n1 | 108 to 110 |
| N#CC(=NNc1c(Cl)cc(C(F)(F)F)cc1Cl)c1ccc(Cl)cc1 | 164 to 165 |

| SMILES | melting point [°C] |
| --- | --- |
| CC(=O)Nc1ccc2c(c1)C(=O)C1(CC1)O2 | 211 to 212 |
| CS(=O)(=O)c1cccc(NC(=O)c2cnn3c(C(F)F)cc(-c4ccc(OC(F)(F)F)cc4)nc23)c1 | 223 |
| CSc1nc(C)ccc1NC(=O)CCCCCBr | 98 to 99 |
| CCCc1c(C(=O)C(C)C)c2ccc(C(=O)OC)cc2n1Cc1ccccc1OC | 103 to 105 |
| CCOC(=O)N1CCc2nc3c(O)c(Br)cc(Br)c3c(C)c2CC1 | 179 |
| COc1ccc2c(c1)OC(C)(C)C(NC(=O)c1cc(F)ccc1OC)C2=O (configuration not stated) | 143 to 144 |
| CCOCC(COCC)Oc1ccc(/C=C/C(=O)O)c(Oc2ncc(C(F)(F)F)cc2Cl)c1 | 62 to 63 |
| CSc1cc(C(C)(C)C)nn1C(=O)Cl | 64 to 66 |
| CC1=C(C(=O)OCOC(=O)C(C)(C)C)C(C)C(C(=O)OCOC(=O)C(C)(C)C)=C(C)N1 | 82 to 83 |
| CN(C)CC1CCCCN1C1c2ccccc2Oc2ccccc21 (configuration not stated) | 81 to 83 |
| CCOC(=O)c1nc2sc([N+](=O)[O-])c(C)c2c(=O)[nH]1 | 229 to 230 |
| CCC1C=C(CCN(O)C(N)=O)c2ccccc21 (configuration not stated) | 81 to 83 |
| O=C1CCC(CCC(=O)OCc2ccc(C(F)(F)F)cc2)N1 (configuration not stated) | 81 to 82 |
| OC1CCCc2nc3cc(Cl)ccc3c(NCc3ccc(F)cc3)c21 (configuration not stated) | 187 to 188 |
| COC(=O)c1ccc2c(c1)C(=O)c1ccc(C(=O)OC)cc1C2=O | 260 |
| COC(=O)c1ccc([N+](=O)[O-])cc1S(=O)(=O)NC(C)(C)C | 122 to 124 |
| CS(=O)(=O)c1ccc(N2CCC3(CC2)Nc2cc(Cl)ccc2C(=O)O3)cc1 | 193 to 194 |
| CCOC(=O)[C@H]1C=C[C@H](c2ccccc2)n2c(=O)n(CCCl)c(=O)n21 (relative stereo) | 117 to 119 |
| COc1cc(C(=O)c2ccc(C(F)(F)F)cc2)cc([N+](=O)[O-])c1O | 172 |
| CC(C)(C)c1ccc(/C=N/OCCOc2ccc(C(=O)O)c(OC(=O)c3ccc(C(F)(F)F)cc3)c2)cc1 | 146 to 148 |
| CC(C)C(=O)N(C(=O)N(C)C)c1snc(C(C)C)c1C#N | 127 to 129 |

The remaining lines, values ahead:

| melting point [°C] | SMILES |
| --- | --- |
| 77 to 79 | Cc1nc2ccccc2n1Cc1ccc(C(=O)NC2CCN(C(=O)OC(C)(C)C)CC2)cc1 |
| 67 to 74 | COc1cc(C2CCN(C[C@@H](C)O)CC2)ccc1Nc1ncc2ccc(-c3ccccc3OC)n2n1 |
| 145 to 147 | Brc1ccc2c3c(cccc13)C(NCCCCn1ccnc1)=N2 |
| 132 to 133 | Cc1oc(-c2ccc3ccccc3c2)nc1COc1ccc(CCCCCOS(C)(=O)=O)cc1 |
| 166 to 168 | CC(C)NC(=O)C(O)C(Oc1ccccc1)c1ccccc1 (configuration not stated) |
| 166 to 173 | CC(C)(N)c1ccc(-c2nc(Nc3ccc(CCN4CCOCC4)cc3)ncc2Cl)cc1 |
| 236 to 238 | Cc1ccc2nc(-c3ccc(-c4ccccc4)cc3)c(O)c(C(=O)O)c2c1 |
| 109 to 110 | CC(C)C1(c2ccccc2)OC(C(=O)OCc2cccnc2)=CC1=O (configuration not stated) |
| 213 to 216 | OC1CCCN(CCCOc2ccc3cc(-c4n[nH]c5cc(-c6ccccc6)sc45)[nH]c3c2)C1 (configuration not stated) |
| 150 to 160 | CCCCCC(c1nccn1CC(=O)O)n1cnc2cc(-c3ccccc3-c3nn[nH]n3)ccc21 (configuration not stated) |
| 207 to 208 | CNc1cccc(-c2nc(=O)c3ccccc3s2)n1 |
| 143 to 145 | CCCCc1oc2ccccc2c1-c1ncc(-c2ccc3c(Br)c(OCc4ccc(C(=O)OC)cc4)ccc3c2)o1 |
| 210 to 211 | Cc1csc(-c2nc(=O)c3ccccc3s2)n1 |
| 52 to 56 | CC(C)(C)c1ocnc1/C=C1\NC(=O)[C@H](Cc2ccccc2)NC1=O |
| 154 to 157 | COCCNC(=O)c1ccc(C(=O)NS(=O)(=O)c2ccc(CCNC(=O)CCC(C)C)cc2)cn1 |
| 68 to 69 | O=Cc1ccc(F)c(OCc2ccccc2)c1 |

| melting point [°C] | SMILES |
| --- | --- |
| 157 to 160 | CC(C)(O)Cn1c(CO)nc2c(N)nc3cc(-c4cccc(C(=O)N5CCCC5)c4)cnc3c21 |
| 106 | Cc1cccc(N2CCN(CCc3c(C)nc4c(C)cccn4c3=O)CC2)c1 |
| 57 to 63 | C=C1C(=O)c2cc(C)ccc2OC1c1ccccc1 (configuration not stated) |
| 196 to 198 | CCc1c(-c2ccccc2)c2c(COCCN3CCCCC3)cc3c(O)ccc1n32 |
| 222 to 225 | CC1(c2ccccc2)C(=O)Nc2cc(Cl)cc(Cl)c2C1=O (configuration not stated) |
| 198 to 202 | O=c1[nH]nc(-c2cccc(OCc3csc(-c4ccccc4F)n3)c2)o1 |
| 191 to 192 | Cc1cc(OCc2ccc(-c3ccc(C(F)(F)F)cc3)nn2)ccc1OC(C)(C)C(=O)O |
| 98 to 99 | CNCc1cn(S(=O)(=O)c2cccnc2)c(-c2ccccc2)c1F |
| 168 to 170 | COCCNc1nc(N)nc(-c2ccccc2)c1-c1ccc(=O)n(C(C)C)n1 |
| 108 | CCn1cc(CN(C(=O)Nc2c(C)cccc2C)c2ccc(C(C)C)cc2)cn1 |
| 140 to 150 | O=S(=O)(Nc1cccc(OCc2ncc3ccccc3n2)c1)C(F)(F)F |
| 140 | c1ccc(Cn2cncc2-c2cnc(-c3ccccc3)nc2)cc1 |
| 205 to 209 | CCCCn1c(=O)c2nc(C(=O)OCC)cn2c2ccccc21 |
| 146 to 151 | O=C(CSCCCOc1ccccc1)NNC(=O)c1ccc(O)cc1 |
| 111 to 112 | COCC(Oc1ccc(-n2c(C)nc3cc(C(F)(F)F)ccc32)cc1)C(=O)O (configuration not stated) |
| 168 to 171 | COc1cc2nc(NC3CCC(N(C)C)CC3)c(-c3ccccn3)nc2cc1OC (configuration not stated) |
